Results on 12 molecules are retold here after ChEMBL document CHEMBL1201862, “PubChem BioAssay data set” (2004).

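48-hour exposure; five concentrations; linearly interpolated endpoints. GI50: concentration for 50% inhibition of growth.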 Activity calls are given as the source filed them. Cut-off read from the data, not from the text of the source: active = GI50 up to about 1.1 µM and inactive = higher.

Among the test systems are A549; ACHN; SK-OV-3; UO-31; EKVX; LOX IMVI; COLO 205; U-251; RPMI-8226; DMS-114; HCC 2998; SF-268; OVCAR-4; UACC-62; PC-3; T47D; NCI/ADR-RES; BT-549; MDA-N; DU-145.
What all share (experiment): growth of human tumour cells (NCI), 48 h

As for `O=C1CCC2(CCC(=O)NC2=O)C(=O)N1`, the GI50 in the test with A549, in the test on ACHN, in the test on SK-OV-3, with UO-31, with EKVX and with LOX IMVI was > 100 µM (inactive) throughout. Also, the GI50 in the test on COLO 205, in the test with U-251, in the test on RPMI-8226, in the test with DMS-114, with HCC 2998 and in the test on SF-268 was > 100 µM (inactive) throughout.

In the case of `Cc1ccc(SSCCCS(=O)O)cc1`, the GI50 in the test on A549 is 31.9 µM (inactive); in the test on ACHN it was 37.4 µM (inactive); in the test with SK-OV-3 it was 49.2 µM (inactive); in the test with UO-31, 23.5 µM (inactive); in the test on EKVX, 33.1 µM (inactive); in the test with LOX IMVI, 11.4 µM (inactive). Also, the GI50 with COLO 205 is 24 µM (inactive); in the test with U-251, 17.4 µM (inactive); in the test with OVCAR-4, 43.8 µM (inactive); in the test with DMS-114, 15.9 µM (inactive); with UACC-62, 27.2 µM (inactive); in the test on HCC 2998, 60 µM (inactive). For the same molecule, the GI50 with SF-268 was 12.2 µM (inactive).

For `Cc1nc(-n2nc(-c3ccccc3)cc2-c2ccccc2)sc1C(=O)/C=C/c1ccc(/C=C/C(=O)c2sc(-n3nc(-c4ccccc4)cc3-c3ccccc3)nc2C)cc1`, the GI50 with A549 was 39 µM (inactive); with ACHN, 19.9 µM (inactive); in the test with SK-OV-3 it was > 100 µM (inactive); with UO-31, 20.1 µM (inactive); with EKVX it was 46.5 µM (inactive); with LOX IMVI, 20 µM (inactive). In addition, the GI50 is 20.2 µM (inactive) with COLO 205; 19 µM (inactive) in the test with U-251; 35.2 µM (inactive) in the test on OVCAR-4; 36.9 µM (inactive) in the test with DMS-114; > 10 µM (inactive) in the test on UACC-62; 20.1 µM (inactive) in the test with HCC 2998. In addition, the GI50 with SF-268 is 23.2 µM (inactive).

On to `CCOP(=O)(C/C(=N/NC(C)(C)C)C(=O)Nc1nc2ccc(C)cc2s1)OCC`, for which the GI50 in the test on A549, in the test with ACHN, with SK-OV-3, in the test on UO-31, with EKVX and in the test with LOX IMVI was > 100 µM (inactive) in each case. Besides, the GI50 with COLO 205, in the test with U-251, in the test with OVCAR-4, with DMS-114, in the test on UACC-62 and in the test on HCC 2998 was > 100 µM (inactive) throughout. Besides, the GI50 with SF-268 is > 100 µM (inactive).

For `CCSC(=O)C1(C)OC2CCCCC2C1=O` (stereo not given), the GI50 with A549, with ACHN, with SK-OV-3, in the test on UO-31, in the test on COLO 205 and in the test on U-251 was > 100 µM (inactive) in each case. For the same molecule, the GI50 with RPMI-8226, in the test with OVCAR-4, in the test on DMS-114, in the test with UACC-62, with HCC 2998 and in the test on SF-268 was > 100 µM (inactive) in each case.

For the molecule `CO/N=C1\CC(C)N2C(=O)C(C(C)C)NC(=O)C(NC(=O)c3c4nc5c(C(=O)NC6C(=O)NC(C(C)C)C(=O)N7C(C)CC(O)C7C(=O)N(C)CC(=O)N(C)C(C(C)C)C(=O)OC6C)ccc(C)c5oc-4c(C)c(=O)c3N)C(CO)OC(=O)C(C)N(C)C(=O)CN(C)C(=O)C12` (stereo not given), the GI50 is 1.95 µM (inactive) in the test on PC-3; 0.815 µM (active) in the test with A549; 1.26 µM (inactive) in the test on ACHN; 3.66 µM (inactive) in the test with SK-OV-3; 2.23 µM (inactive) with UO-31; 0.574 µM (active) in the test with T47D. The GI50 is 4 µM (inactive) in the test with EKVX; 0.156 µM (active) with LOX IMVI; 0.411 µM (active) with COLO 205; 0.242 µM (active) in the test on U-251; 0.0984 µM (active) in the test with RPMI-8226; 5.82 µM (inactive) with OVCAR-4. In addition, the GI50 in the test with NCI/ADR-RES is 16.6 µM (inactive); in the test on BT-549 it was 2.45 µM (inactive); in the test on MDA-N it was 0.773 µM (active); in the test with DU-145, 1.97 µM (inactive); in the test with UACC-62 it was 0.29 µM (active); in the test on HCC 2998, 0.869 µM (active). Also, the GI50 in the test with SF-268 was 0.986 µM (active).

For `CN(C)S(=O)(=O)c1ccc2c(c1)/C(=C1/Nc3ccccc3C1=O)C(=O)N2`, the GI50 in the test on PC-3 was 23 µM (inactive); with A549 it was > 100 µM (inactive); in the test with ACHN, 12.1 µM (inactive); with SK-OV-3 it was 13.9 µM (inactive); in the test on UO-31, 44.3 µM (inactive); with T47D, 24.8 µM (inactive). For the same molecule, the GI50 with EKVX is 24 µM (inactive); with LOX IMVI, 41.6 µM (inactive); in the test with COLO 205, > 100 µM (inactive); with U-251, 10.6 µM (inactive); with RPMI-8226 it was > 100 µM (inactive); in the test on OVCAR-4, > 100 µM (inactive). Besides, the GI50 in the test with NCI/ADR-RES was 71.9 µM (inactive); in the test with BT-549, 15 µM (inactive); with MDA-N it was > 100 µM (inactive); in the test on DU-145, 24.9 µM (inactive); in the test on UACC-62, 14.7 µM (inactive); in the test with HCC 2998, > 100 µM (inactive). Besides, the GI50 in the test with SF-268 is 14.7 µM (inactive).

`O=C(Nc1cccc2c1C(=O)c1c(NC(=O)c3ccccc3)ccc(Nc3cccc4c3C(=O)c3ccccc3C4=O)c1C2=O)c1ccccc1`: the GI50 in the test with A549, in the test on ACHN, in the test on SK-OV-3, with UO-31, in the test with EKVX and with COLO 205 was > 100 µM (inactive) each time. For the same molecule, the GI50 with U-251, in the test with RPMI-8226, with OVCAR-4, with DMS-114, with UACC-62 and in the test on HCC 2998 was > 100 µM (inactive) each time. Moreover, the GI50 in the test with SF-268 was > 100 µM (inactive).

On to `Cn1cco/c1=N/c1ccc(Cl)c(Cl)c1`, for which the GI50 with PC-3, in the test on A549, in the test with ACHN, in the test on SK-OV-3, in the test on UO-31 and in the test on T47D was > 10 µM (inactive) each time. The GI50 in the test on EKVX, in the test on LOX IMVI, in the test on COLO 205, with U-251, in the test on RPMI-8226 and with OVCAR-4 was > 10 µM (inactive) each time. Moreover, the GI50 with NCI/ADR-RES, in the test on BT-549, in the test on MDA-N, in the test on DU-145, in the test with UACC-62 and with HCC 2998 was > 10 µM (inactive) each time. Moreover, the GI50 in the test on SF-268 was > 10 µM (inactive).

As for `COc1ccc(-c2cs/c(=N\c3ccccc3)n2CC(O)c2ccc([N+](=O)[O-])cc2)cc1` (stereo not given), the GI50 is > 100 µM (inactive) in the test on PC-3; > 100 µM (inactive) with A549; > 100 µM (inactive) with ACHN; > 100 µM (inactive) in the test with SK-OV-3; > 100 µM (inactive) with UO-31; 5.42 µM (inactive) in the test on T47D. Besides, the GI50 in the test with EKVX was > 100 µM (inactive); in the test on LOX IMVI, > 100 µM (inactive); in the test on COLO 205, > 100 µM (inactive); in the test with U-251, > 100 µM (inactive); with RPMI-8226 it was 6.37 µM (inactive); with OVCAR-4 it was > 100 µM (inactive). Also, the GI50 is > 74.5 µM (inactive) in the test on NCI/ADR-RES; > 100 µM (inactive) with BT-549; > 100 µM (inactive) in the test with MDA-N; > 100 µM (inactive) with DU-145; > 73.5 µM (inactive) with UACC-62; > 100 µM (inactive) in the test with HCC 2998. Moreover, the GI50 with SF-268 was > 100 µM (inactive).

On to `N=c1c2sc3nc4ccccc4n3c2ncn1Cc1ccccc1`, for which the GI50 with PC-3, in the test with A549, with ACHN, with SK-OV-3, in the test on UO-31 and in the test with T47D was > 100 µM (inactive) in each case. The GI50 in the test on EKVX, in the test on LOX IMVI, in the test with COLO 205, in the test with U-251, in the test with RPMI-8226 and with OVCAR-4 was > 100 µM (inactive) in each case. For the same molecule, the GI50 with NCI/ADR-RES, in the test with BT-549, in the test with MDA-N, with DU-145, with UACC-62 and in the test on HCC 2998 was > 100 µM (inactive) each time. The GI50 in the test on SF-268 is > 100 µM (inactive).

With `O=C1c2cccnc2C(=O)C2C3C=CC(C3)C12` (stereo not given), the GI50 was 10.2 µM (inactive) with PC-3; 12.4 µM (inactive) in the test on A549; 7.53 µM (inactive) in the test with ACHN; 18.3 µM (inactive) in the test on SK-OV-3; 11.8 µM (inactive) in the test with UO-31; 3.01 µM (inactive) with T47D. Besides, the GI50 in the test with EKVX is 13.4 µM (inactive); in the test on LOX IMVI it was 3.66 µM (inactive); in the test on COLO 205, 13.3 µM (inactive); in the test with U-251 it was 4.23 µM (inactive); in the test on RPMI-8226 it was 2.49 µM (inactive); with OVCAR-4, 5.01 µM (inactive). The GI50 in the test with NCI/ADR-RES was 4.52 µM (inactive); with BT-549, 11.5 µM (inactive); with MDA-N, 3.61 µM (inactive); in the test with DU-145, 6.92 µM (inactive); in the test on UACC-62, 3.37 µM (inactive); in the test on HCC 2998, 15.8 µM (inactive). Besides, the GI50 with SF-268 was 10.2 µM (inactive).
